Values joined by “and” are separate entries in the source; they are usually repeats but may differ in a detail not shown here. Equal values may be shown once.
Experiments:
[1] = test system: morphinic withdrawal syndrome induced by naloxone in mice; test: Withdrawal syndrome induced by naloxone in mice treated with morphine (jumping test); details: for % protection: relative to the morphine group
[2] = test system: self-administration of cocaine in rats; test: Dependence induced by cocaine: self-administration of cocaine in trained rats; assay type: in vivo; details: 1 hour before session
Method: The anti-mineralocorticoid product AM2 was tested on 5 rats which were trained in the self-administration of cocaine during daily periods of one hour.
These rats were pre-treated 1 hour before the start of the self-administration sessions.
The product AM2 dissolved in a saline solution was administered by intra-peritoneal route. The doses range from 10 to 100 mg/kg.

[3] = antimineralocorticoid alone 4 × 10 mg/kg p.o., no morphine, naloxone 100 mg/kg i.p.
[4] = antimineralocorticoid alone 4 × 20 mg/kg p.o., no morphine, naloxone 100 mg/kg i.p.
[5] = morphine 799 mg/kg s.c. + antimineralocorticoid 4 × 10 mg/kg p.o., naloxone 100 mg/kg i.p.
[6] = morphine 799 mg/kg s.c. + antimineralocorticoid 4 × 10 mg/kg p.o.
[7] = morphine 799 mg/kg s.c. + antimineralocorticoid 4 × 20 mg/kg p.o., naloxone 100 mg/kg i.p.
[8] = morphine 799 mg/kg s.c. + antimineralocorticoid 4 × 20 mg/kg p.o.

Structure (SMILES) | Number of jumps/10 minutes (m ± sem) [1, 3] | Number of jumps/10 minutes (m ± sem) [1, 4] | Number of jumps/10 minutes (m ± sem) [1, 5] | % protection [1, 6] | Number of jumps/10 minutes (m ± sem) [1, 7] | % protection [1, 8] | Number of jumps/10 minutes (m ± sem) ([1]; morphine alone 799 mg/kg s.c. (cumulative over 4 days), naloxone 100 mg/kg i.p. on day 4) | effect on the self-administration of cocaine ([2]; pre-treatment with 10 or 20 mg/kg intra-peritoneal) | effect on the self-administration of cocaine ([2]; pre-treatment with 50 or 75 mg/kg intra-peritoneal) | Number of jumps/10 minutes (m ± sem) ([1]; antimineralocorticoid alone 4 × 50 mg/kg p.o., no morphine, naloxone 100 mg/kg i.p.) | Number of jumps/10 minutes (m ± sem) ([1]; morphine 799 mg/kg s.c. + antimineralocorticoid 4 × 50 mg/kg p.o., naloxone 100 mg/kg i.p.) | % protection ([1]; morphine 799 mg/kg s.c. + antimineralocorticoid 4 × 50 mg/kg p.o.)
CC(=O)S[C@@H]1CC2=CC(=O)CC[C@]2(C)[C@H]2CC[C@@]3(C)[C@@H](CC[C@@]34CCC(=O)O4)[C@H]12 [AM1, γ-lactone of 7α-acetylthio-17β-hydroxy-3-oxo-17α-pregn-4-ene-21-carboxylic acid] | 3 ± 2 jumps/10 minutes | 11 ± 4 jumps/10 minutes | 51 ± 7 jumps/10 minutes | −33% | 77 ± 8 jumps/10 minutes | −32% | – | – | – | – | – | –
CN1CC[C@]23c4c5ccc(O)c4O[C@H]2[C@@H](O)C=C[C@H]3[C@H]1C5 [Morphine, morphine] | – | – | – | – | – | – | 114 ± 8 jumps/10 minutes and 76 ± 15 jumps/10 minutes and 102 ± 10 jumps/10 minutes and 99 ± 13 jumps/10 minutes | – | – | – | – | –
CCC[C@@H]1CC2=CC(=O)CC[C@]2(C)[C@H]2CC[C@@]3(C)[C@@H](CC[C@@]3(O)CCC(=O)[O-])[C@H]12.[K+] [AM2, potassium 17β-hydroxy 3-oxo 7α-propyl-(17α)-pregn-4-ene-21-carboxylate] | 2 ± 2 jumps/10 minutes | 4 ± 4 jumps/10 minutes | 76 ± 16 jumps/10 minutes | −25% | 51 ± 8 jumps/10 minutes | −48% | – | little or no effect | significant reduction | 3 ± 2 jumps/10 minutes | 61 ± 8 jumps/10 minutes | −40%

From US6759399B1, “Use of antimineralocorticoid compounds against narcotic withdrawal syndrome” (Aventis Pharma S.A., priority 1995, dated 2004)
